The values that follow come from patent US11253532B2, “Composition for promoting increase in androgen” (Kobayashi Pharmaceutical Co., Ltd., priority 2016, dated 2022).

The subject of the assay is cells of testes collected from mice (primary culture). The experiment in a line: Test Example 1: testosterone secretion from primary culture of mouse testes cells, measured by EIA. The class given is cell-based, mice (ddY strain). As to conditions: 2-hour culture. As to the method:
2 mL of 50% ethanol was added to 4 mg/vial of compound K (trade name: Ginsenoside CK, 0150S, Extrasynthese S.A.) to dissolve compound K, and the obtained solution was suitably diluted with a DME/F-12 medium (Nacalai Tesque) containing 0.1% bovine serum albumin (BSA) (“0.1% BSA-DME/F-12”) to prepare a sample.
Testes were collected from mice (ddY strain, male, 7 to 8 weeks old), and subjected to primary culture. Specifically, testes were subjected to collagenase treatment (Worthington, Type 2, 0.05%, 37° C., 15 minutes) to disperse cells, and adjusted to 3×10^5 cells/0.5 mL in a DME/F-12 medium containing 10% fetal bovine serum (FBS). The cells were then seeded into a 24-well plate, and cultured overnight. After culture, the cells were washed with PBS(−) (Dulbecco's PBS (0.2 g/L of potassium chloride, 0.2 g/L of monopotassium phosphate, 8 g/L of sodium chloride, 1.15 g/L of anhydrous disodium phosphate, pH of 7.4, an isotonic solution, ion content: (mEq)Na^+ 148, K^+ 4, Cl^− 139)). The prepared sample was then added to the cells to give a volume of 1/10, together with a 0.1% BSA-DME/F-12 medium, and the concentration of compound K in the wells was adjusted to 1 μg/mL, 10 μg/mL, and 100 μg/mL.
A mixture solution of 50% ethanol and 0.1% BSA-DME/F-12 was prepared in place of the sample in the same manner as above, except that compound K was not added; this mixture was added to the cells to give a volume of 1/10 as above, thereby preparing a control (the concentration of compound K: 0 μg/mL).
After 2-hour culture, the medium was collected, and the testosterone levels in the mediums were measured by enzyme immunoassay (EIA).
Specifically, a goat anti-rabbit IgG antibody (2 μg/well) was added to a 96-well microplate (Nunc, Denmark), and the plate was coated at room temperature for 1 hour. After washing, a blocking agent (0.14M NaCl, 0.02% thimerosal, 1% BSA, 0.01M phosphate buffer, pH of 7.4) was added thereto to perform blocking at room temperature for 15 minutes. […] The absorbance at 490 nm was measured with a microplate reader to determine the testosterone secretion level.

Take `CC(C)=CCC[C@](C)(O[C@@H]1O[C@H](CO)[C@@H](O)[C@H](O)[C@H]1O)[C@H]1CC[C@]2(C)[C@@H]1[C@H](O)C[C@@H]1[C@@]3(C)CC[C@H](O)C(C)(C)[C@@H]3CC[C@]12C` [compound K, 20(S)-protopanaxadiol 20-O-β-d-glucopyranoside (M1)]: the “testosterone level in a medium” value (compound K 1 μg/mL, not shown in FIG. 1) was “increased testosterone level”; the “testosterone level in a medium” value (compound K 10 μg/mL, versus medium free from compound K (0 μg/mL), FIG. 1) is reported as “higher”; the “testosterone level in a medium” value (compound K 100 μg/mL, versus medium free from compound K (0 μg/mL), FIG. 1) was “higher”.
